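Protocol summary: plate cells (96-well), add compound at 5 concentrations, incubate 48 h, interpolate endpoints linearly. TGI: concentration producing complete growth inhibition.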
Columns and labels:
Assay in all cases: DTP human tumour cell line panel, 48 h
[1] = tested on: 786-0 renal
[2] = tested on: A498 renal
[3] = tested on: A549 NSCLC
[4] = tested on: ACHN renal
[5] = tested on: BT-549 breast
[6] = tested on: CAKI-1 renal
[7] = tested on: CCRF-CEM leukemia
[8] = tested on: COLO 205 colon
[9] = tested on: DU-145 prostate
[10] = tested on: EKVX NSCLC
[11] = tested on: HCC-2998 colon
[12] = tested on: HCT-116 colon
[13] = tested on: HCT-15 colon
[14] = tested on: HL-60(TB) leukemia
[15] = tested on: HOP-62 NSCLC
[16] = tested on: HOP-92 NSCLC
[17] = tested on: HS 578T breast
[18] = tested on: HT29 colon
[19] = tested on: IGROV1 ovarian
[20] = tested on: K-562 leukemia
[21] = tested on: KM12 colon
[22] = tested on: LOX IMVI melanoma
[23] = tested on: M14 melanoma
[24] = tested on: MALME-3M melanoma
[25] = tested on: MCF7 breast
[26] = tested on: MDA-MB-231 breast
[27] = tested on: MDA-MB-435
[28] = tested on: MDA-N
[29] = tested on: MOLT-4 leukemia
[30] = tested on: NCI-H226 lung
[31] = tested on: NCI-H23 lung
[32] = tested on: NCI-H460 lung
[33] = tested on: NCI-H522 lung
[34] = tested on: NCI/ADR-RES ovarian
[35] = tested on: OVCAR-3 ovarian
[36] = tested on: OVCAR-4 ovarian
[37] = tested on: OVCAR-5 ovarian
[38] = tested on: OVCAR-8 ovarian
[39] = tested on: PC-3 prostate
[40] = tested on: RXF 393 renal
[41] = tested on: SF-268 CNS
[42] = tested on: SF-295 CNS
[43] = tested on: SK-MEL-2 melanoma
[44] = tested on: SK-MEL-28 melanoma
[45] = tested on: SK-MEL-5 melanoma
[46] = tested on: SK-OV-3 ovarian
[47] = tested on: SN12C renal
[48] = tested on: SNB-19 CNS
[49] = tested on: SR leukemia
[50] = tested on: SW-620 colon
[51] = tested on: T-47D breast
[52] = tested on: TK-10 renal
[53] = tested on: U251 CNS
[54] = tested on: UACC-257 melanoma
[55] = tested on: UACC-62 melanoma
[56] = tested on: UO-31 renal
[57] = tested on: RPMI-8226 leukemia
[58] = tested on: SNB-75 CNS

Question: Which results are given for `CNc1ccc2nc(-c3ccc(OC(=O)N(C)C)cc3)cn2c1`?
Answer: TGI [1]: 27.6 µM; TGI [2]: 32.2 µM; TGI [3]: 32.4 µM; TGI [4]: 37.3 µM; TGI [5]: 31.6 µM; TGI [6]: 44.7 µM; TGI [7]: 32.3 µM; TGI [8]: 32.2 µM; TGI [9]: > 100 µM; TGI [10]: 33.4 µM; TGI [11]: 81.2 µM; TGI [12]: 33.5 µM; TGI [13]: 40.2 µM; TGI [14]: 62.3 µM; TGI [15]: 32.9 µM; TGI [16]: 50 µM; TGI [17]: > 100 µM; TGI [18]: 34 µM; TGI [19]: 31.8 µM; TGI [20]: 49.7 µM; TGI [21]: 32.3 µM; TGI [22]: 31.6 µM; TGI [23]: 36.9 µM; TGI [24]: > 100 µM; TGI [25]: 43.6 µM; TGI [26]: 31.5 µM; TGI [27]: 30.7 µM; TGI [28]: 38 µM; TGI [29]: 43 µM; TGI [30]: 37.4 µM; TGI [31]: 40.4 µM; TGI [32]: 34.4 µM; TGI [33]: 28.8 µM; TGI [34]: 59.1 µM; TGI [35]: > 100 µM; TGI [36]: 31.6 µM; TGI [37]: 46 µM; TGI [38]: 30.3 µM; TGI [39]: 29.5 µM; TGI [40]: 26.1 µM; TGI [41]: 30 µM; TGI [42]: 31.5 µM; TGI [43]: 31.8 µM; TGI [44]: > 100 µM; TGI [45]: 57.1 µM; TGI [46]: 33 µM; TGI [47]: 27.2 µM; TGI [48]: 29.6 µM; TGI [49]: 44.1 µM; TGI [50]: 51.4 µM; TGI [51]: 47.2 µM; TGI [52]: 34.3 µM; TGI [53]: 28.8 µM; TGI [54]: > 100 µM; TGI [55]: 35.1 µM; TGI [56]: 35.4 µM

Question: With `COc1ccc(N2C(=O)C3c4[nH]c5ccc(C)cc5c4C4CCC(C(C)C)CC4C3C2=O)cc1` (stereo unspecified) as the compound, how does the TGI [1] read?
Answer: > 100 µM

Question: And the TGI [2]?
Answer: > 100 µM

Question: And the TGI [3]?
Answer: > 100 µM

Question: And the TGI [4]?
Answer: > 100 µM

Question: What about the TGI [5] of the same compound?
Answer: > 100 µM

Question: And the TGI [6]?
Answer: > 100 µM

Question: What about the TGI [7] of the same compound?
Answer: > 100 µM

Question: What about the TGI [8] of the same compound?
Answer: > 100 µM

Question: And the TGI [9]?
Answer: > 100 µM

Question: What about the TGI [10] of the same compound?
Answer: > 100 µM

Question: And the TGI [11]?
Answer: > 100 µM

Question: And the TGI [12]?
Answer: > 100 µM

Question: And the TGI [13]?
Answer: > 100 µM

Question: And the TGI [15]?
Answer: > 100 µM

Question: And the TGI [16]?
Answer: > 100 µM

Question: And the TGI [17]?
Answer: > 100 µM

Question: What about the TGI [18] of the same compound?
Answer: > 100 µM

Question: What about the TGI [19] of the same compound?
Answer: > 100 µM

Question: What about the TGI [20] of the same compound?
Answer: > 100 µM

Question: What about the TGI [21] of the same compound?
Answer: > 100 µM

Question: And the TGI [22]?
Answer: > 100 µM

Question: What about the TGI [23] of the same compound?
Answer: > 100 µM

Question: And the TGI [25]?
Answer: > 100 µM

Question: And the TGI [26]?
Answer: > 100 µM

Question: What about the TGI [27] of the same compound?
Answer: > 100 µM

Question: And the TGI [28]?
Answer: > 100 µM

Question: What about the TGI [29] of the same compound?
Answer: > 100 µM

Question: What about the TGI [30] of the same compound?
Answer: > 100 µM

Question: And the TGI [31]?
Answer: > 100 µM

Question: What about the TGI [32] of the same compound?
Answer: > 100 µM

Question: What about the TGI [33] of the same compound?
Answer: > 100 µM

Question: And the TGI [34]?
Answer: > 100 µM

Question: What about the TGI [35] of the same compound?
Answer: > 100 µM

Question: What about the TGI [36] of the same compound?
Answer: > 100 µM

Question: What about the TGI [37] of the same compound?
Answer: > 100 µM

Question: And the TGI [38]?
Answer: > 100 µM

Question: And the TGI [39]?
Answer: > 100 µM

Question: And the TGI [57]?
Answer: > 100 µM

Question: And the TGI [41]?
Answer: > 100 µM

Question: And the TGI [42]?
Answer: > 100 µM

Question: What about the TGI [43] of the same compound?
Answer: > 100 µM

Question: What about the TGI [44] of the same compound?
Answer: > 100 µM

Question: What about the TGI [45] of the same compound?
Answer: > 100 µM

Question: What about the TGI [46] of the same compound?
Answer: > 100 µM

Question: And the TGI [47]?
Answer: > 100 µM

Question: And the TGI [48]?
Answer: > 100 µM

Question: What about the TGI [58] of the same compound?
Answer: 74.2 µM

Question: And the TGI [49]?
Answer: > 100 µM

Question: And the TGI [50]?
Answer: > 100 µM

Question: What about the TGI [51] of the same compound?
Answer: > 100 µM

Question: And the TGI [52]?
Answer: > 100 µM

Question: And the TGI [53]?
Answer: > 100 µM

Question: What about the TGI [54] of the same compound?
Answer: > 100 µM

Question: What about the TGI [55] of the same compound?
Answer: > 100 µM

Question: What about the TGI [56] of the same compound?
Answer: > 100 µM

Reference: PubChem BioAssay (NCI)
